Laboratory results from PMC9963659, “Novel 2-Thiouracil-5-Sulfonamide Derivatives: Design, Synthesis, Molecular Docking, and Biological Evaluation as Antioxidants with 15-LOX Inhibition” (Molecules, 2023).

What was measured:
[1] = DPPH radical scavenging assay; type: biochemical; conditions: mean ± SEM of three experiments
Experimental: The antioxidant potential of all target compounds (3–9) was determined using DPPH radical scavenging assay in comparison with ascorbic acid (AA) as the control treatment.
The mechanism of antioxidants as DPPH radical scavengers is based on their hydrogen-donation ability as hydrogen atoms or an electron transfer from the compound to the DPPH to form DPPH-H. The results of DPPH reduction are presented in Table 2, Figure 7.
The DPPH scavenging activity of all novel synthesized compounds (3–9) was measured as previously described (see Supplementary Materials).
1-Biological Evaluation Details: a-In-vitro Assays for biological antioxidant Activity
- DPPH scavenging method.
A 96-well plate was filled with 100 µL of the investigated compounds at various concentrations (12.5, 25, 50, 100, and 200 µg/mL ). The plate was then incubated at room temperature for 30 min while being protected from light by adding 100 µL of 100µM DPPH methanolic solution to each well. At a λ517 nm. the solution's absorbance was measured.
The positive control was ascorbic acid, and the negative control was DMSO. According to the following equation, the percentage of DPPH scavenging activity was determined:
% of DPPH scavenging = [(A control -A sample) / A control] x100. where A control is the absorbance of the control reaction (with all reagents except the test compound), and A sample is the absorbance of the test sample. Linear regression analysis was performed to calculate drug concentration showing 50% free radical inhibition activity (IC50). All tests were performed in triplicates. […]

[2] = Hydrogen peroxide scavenging assay; type: biochemical; conditions: mean ± SEM of three experiments
Experimental: H2O2 assay is used to estimate the scavenging power of the target compounds (4–9) to H2O2.
The hydrogen peroxide (H2O2) scavenging activity of all novel synthesized compounds 3–9 was measured as previously reported (see Supplementary Materials).
1-Biological Evaluation Details: a-In-vitro Assays for biological antioxidant Activity […]
Linear regression analysis was performed to calculate drug concentration showing 50% free radical inhibition activity (IC50). All tests were performed in triplicates.
-Scavenging of hydrogen peroxide
In this method, the decay or loss of hydrogen peroxide can be quantified spectrophotometrically at 230 nm when a scavenger is incubated with it. The procedure was applied with a few changes. In phosphate buffered saline, hydrogen […]
peroxide (20 mM) solution was prepared in phosphate buffered saline (PBS, pH 7.4). In order to make different concentrations of 1 ml of the tested substances (3–9) or standards in methanol, 2 ml of hydrogen peroxide solution in PBS was added. After 10 minutes, the absorbance of H2O2 was measured at 230 nm in comparison to an ascorbic acid (AA) reference solution that contained phosphate buffer but no H2O2.
% of H2O2 scavenging = [(A control -A sample) / A control] x100. […]

[3] = Lipid peroxidation assay (FeCl2/H2O2-stimulated linoleic acid peroxidation); type: biochemical; conditions: mean ± SEM of three experiments

SMILES	DPPH IC50 [1] [µg/mL]	H2O2 IC50 [2] [µg/mL]	Lipid Peroxidation IC50 [3] [µg/mL]	melting point [°C]
O=C(C=Cc1cccc([N+](=O)[O-])c1)c1cccc(NS(=O)(=O)c2c[nH]c(=S)[nH]c2=O)c1 [Compound 4a, N-{3-[(2E)-3-(3-nitrophenyl)prop-2-enoyl]phenyl}-4-oxo-2-thioxo-1,2,3,4-tetrahydro pyrimidine-5-sulfonamide]	50.5 ± 0.79	>100	>100	240 to 242
Cc1cccc(/C=C/C(=O)c2cccc(NS(=O)(=O)c3c[nH]c(=S)[nH]c3=O)c2)c1 [Compound 4d, N-{3-[(2E)-3-(3-methylphenyl)prop-2-enoyl]phenyl}-4-oxo-2-thioxo-1,2,3,4-tetra hydropyrimidine-5-sulfonamide]	40.0 ± 1.70	80.0 ± 0.70	>100	287 to 289
O=C(/C=C/c1cccc(Cl)c1)c1cccc(NS(=O)(=O)c2c[nH]c(=S)[nH]c2=O)c1 [Compound 4b, N-{3-[(2E)-3-(3-chlorophenyl)prop-2-enoyl]phenyl}-4-oxo-2-thioxo-1,2,3,4-tetra hydropyrimidine-5-sulfonamide]	44.3 ± 1.67	95.0 ± 1.40	>100	283 to 285
O=C1O[C@H]([C@@H](O)CO)C(O)=C1O [Ascorbic acid, reference compound]	12.80 ± 0.90	23.0 ± 1.37	36.0 ± 1.30	
O=C(CBr)c1cccc(NS(=O)(=O)c2c[nH]c(=S)[nH]c2=O)c1 [Compound 8, N-[3-(bromoacetyl)phenyl]-4-oxo-2-thioxo-1,2,3,4-tetrahydropyrimidine-5-sulfonamide]	70.27 ± 1.17	>100	>100	305 to 307
O=C(/C=C/c1cccc(F)c1)c1cccc(NS(=O)(=O)c2c[nH]c(=S)[nH]c2=O)c1 [Compound 4c, N-{3-[(2E)-3-(3-fluorophenyl)prop-2-enoyl]phenyl}-4-oxo-2-thioxo-1,2,3,4-tetra hydropyrimidine-5-sulfonamide]	43.0 ± 0.50	>100	>100	270 to 272
CC(=O)c1cccc(NS(=O)(=O)c2c[nH]c(=S)[nH]c2=O)c1 [Compound 3, N-(3-Acetylphenyl)-4-oxo-2-thioxo-1,2,3,4-tetrahydropyrimidine-5-sulfonamide]	80.0 ± 0.70	>100	>100	318 to 320
